Results from patent US5081131A, “Omega-((hetero)alkyl)benz(cd)-indol-2-amines” (American Cyanamid Company, priority 1988, dated 1992).
Where a name gives a salt, the structure may show the parent alone.

Tests used:
[1] = biological target: T1, thromboxane synthetase enzyme (Rattus norvegicus, UniProt P49430); assay: Thromboxane synthetase enzyme inhibition (TXB2 formation in washed platelets, RIA); format: cell-based, spontaneously hypertensive rat; conditions: 1×10^-4 Molar, SHR platelets, 10 min at 37° C.; for inhibition at 100 µM: read-out: % Inhibition (Thromboxane Synthetase Enzyme Inhibition)
T1 construct: endogenous in cells; host or cells: washed platelets from arterial blood of male Okamoto-Aoki spontaneously hypertensive rats (animals from Taconic Farms, Germantown, N.Y.)
T1 sequence (P49430 1-533): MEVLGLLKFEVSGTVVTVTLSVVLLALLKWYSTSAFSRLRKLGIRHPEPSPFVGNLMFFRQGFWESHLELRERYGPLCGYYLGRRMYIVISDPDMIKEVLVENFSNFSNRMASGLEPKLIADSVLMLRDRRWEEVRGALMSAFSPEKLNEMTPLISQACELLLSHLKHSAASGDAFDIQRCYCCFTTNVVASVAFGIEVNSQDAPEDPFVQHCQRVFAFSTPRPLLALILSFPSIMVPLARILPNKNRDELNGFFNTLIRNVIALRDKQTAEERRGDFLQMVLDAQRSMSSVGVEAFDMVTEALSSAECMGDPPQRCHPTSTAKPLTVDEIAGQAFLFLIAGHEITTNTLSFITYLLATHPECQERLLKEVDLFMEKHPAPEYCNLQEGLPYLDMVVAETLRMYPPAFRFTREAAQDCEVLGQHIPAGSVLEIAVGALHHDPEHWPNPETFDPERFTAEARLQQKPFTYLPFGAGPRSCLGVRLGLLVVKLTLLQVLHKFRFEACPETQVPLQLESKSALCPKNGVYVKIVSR
Experimental: The blood was diluted with 3 ml cold saline and centrifuged at room temperature for 15 min at 468×g. The platelet rich plasma (PRP) was separated. The platelets were isolated by certrifuging the PRP for 10 minutes at 1060×g and washed in 4 ml cold oxygenated Krebs phosphate buffer, pH 7.4. The chilled platelets recovered from centrifuging at 800×g for 10 minutes were resuspended in oxygenated Krebs phosphate buffer and diluted to contain 4.0-6.0×10^4 platelets/micro-liters. The inhibition of TX formation was studied by determining the concentration of thromboxane B2 (TXB2), the stable hydrolysis product of TXA2. Assay samples prepared on ice, contained 200 micro-liters platelet suspension, 50 micro-liters saline, and 50 micro-liters […] (saline) or drug under study. The test drug (0.003 mole) was dissolved in 5 ml of saline. […] The assay samples were incubated for 10 minutes at 37° C. in a metabolic shaker at about 60 rpm. The reaction was terminated by immersing the tubes in an ice bath and adding 50 micro-liters of 0.5M citric acid. The samples were centrifuged for 10 minutes at 2000 rpm at 4° C., and the supernatants were decanted.

[2] = tested on: spontaneously hypertensive rats; assay: Hypotensive activity in spontaneously hypertensive rats (MABP); format: in vivo, rat (Okamoto strain); conditions: SHR, gavage, two doses of 10 mg/kg or less 24 h apart, MABP at 28 h; average baseline 160±1.5 mm Hg
Experimental: The novel compounds of the present invention are active hypotensive agents and were tested for hypotensive activity by the method of P. S. Chan and D. Poorvin, Clinical and Experimental Hypertension, 1 (6), 817-830 (1979). Male, 16 week old, spontaneously hypertensive rats of the Okamoto strain, from Taconic Farms, Germantown, N.Y., having an average mean arterial blood pressure of 160±1.5 mm of mercury, were used in the test. One to 4 rats were used per test compound. A rat was dosed by gavage with a test compound, suspended in 2% pre-boiled starch at a concentration of 50 mg/ml, at a doses of 10 mg/kg of body weight or less, with 0.9% sodium chloride loading at a dose of 25 ml/kg of body weight. A second identical dose of the test compound, without sodium chloride loading was given 24 hours later. At 28 hours after initial dose the mean arterial blood pressure (MABP) was measured. The procedure was repeated in a second and third rat when necessary.

Structure (SMILES) | inhibition at 100 µM [1] [%] | Avg. MABP in mm Hg (No. of Rats) [2] [mm Hg] | % Inhibition (Thromboxane Synthetase Enzyme Inhibition) [1] [%]
O=C(O)/C=C/C(=O)O.c1ccc(OCCNC2=Nc3cccc4cccc2c34)nc1 [N-(2-(2-Pyridinyloxy)ethyl)benz(cd)indol-2-amine fumarate] | 88 | 140 | 
c1cc2c3c(cccc3c1)C(NCCc1ccncc1)=N2 [N-(2-(4-Pyridinyl)ethyl)benz(cd)indol-2-amine, sesqui-fumarate] | 88 | 115 | 
O=C(O)/C=C/C(=O)O.c1coc(CNC2=Nc3cccc4cccc2c34)c1 [N-(2-Furanylmethyl)benz(cd)indol-2-amine fumarate] | 93 | 142 | 
CC(CNC1=Nc2cccc3cccc1c23)Cc1cccnc1.O=C(O)/C=C/C(=O)O (stereo not shown) [N-(2-Methyl-3-(3-pyridinyl)propyl)benz(cd)indol-2-amine, fumarate] | 99 | 124 | 
O=C(O)/C=C/C(=O)O.c1csc(CNC2=Nc3cccc4cccc2c34)c1 [N-(2-Thienylmethyl)benz(cd)indol-2-amine, fumarate] | 93 | 141 | 
O=C(O)/C=C/C(=O)O.c1cc2c3c(cccc3c1)C(NCCCn1cnc3ccccc31)=N2 [N-(3-(1H-benzimidazol-1-yl)propyl)benz(cd)indol-2-amine, fumarate] |  | 123 | 90
c1cc2c3c(cccc3c1)C(NCCCn1cnc3ccccc31)=N2 [N-(3-(1H-benzimidazol-1-yl)propyl)benz(cd)indol-2-amine] |  | 124 | 60
CC(CNC1=Nc2cccc3cccc1c23)Cn1ccnc1.Cl.Cl (stereo not shown) [N-(3-(1H-imidazol-1-yl)-2-methylpropyl)benz(cd)indol-2-amine, dihydrochloride] | 95 | 113 | 
CC(CCNC1=Nc2cccc3cccc1c23)n1ccnc1 (stereo not drawn) [N-(3-(1H-imidazol-l-yl)butyl)benz(cd) indol-2-amine, dihydrochloride] | 92 | 104 | 
CC(CCNC1=Nc2cccc3cccc1c23)c1cccnc1 (stereo not shown) [N-(3-(3-Pyridinyl)butyl)benz(cd)indol-2-amine] | 96 | 110 | 
O=C(O)/C=C/C(=O)O.c1cncc(CCCNC2=Nc3cccc4cccc2c34)c1 [N-(3-(3-Pyridinyl)propyl)benz(cd)indol-2-amine, fumarate] | 97 | 93 | 
O=C(O)/C=C/C(=O)O.c1cncc(OCCCNC2=Nc3cccc4cccc2c34)c1 [N-(3-(3-Pyridinyloxy)propyl)benz(cd)indol-2-amine, fumarate] | 94 | 116 | 
CC(CCCNC1=Nc2cccc3cccc1c23)n1ccnc1.O=C(O)/C=C/C(=O)O (stereo not shown) [N-(4-(1H-imidazol-1-yl)pentyl)benz(cd)indol-2-amine, fumarate] | 99 | 97 | 
c1ccc(CCCCNC2=Nc3cccc4cccc2c34)nc1 [N-(4-(2-Pyridinyl)butyl)benz(cd)indol-2-amine, sesqui-fumarate] | 89 | 106 | 
c1cc2c3c(cccc3c1)C(NCc1ccncc1)=N2 [N-(4-Pyridinylmethyl)benz(cd)indol-2-amine, sesqui-fumarate] | 97 | 90 | 
CC(CCNC1=Nc2cccc3cccc1c23)CCn1ccnc1 (stereo not shown) [N-(5-(1H-imidazol-1-yl)-3-methylpentyl)benz(cd)indol-2-amine,dihydrochloride] | 100 | 92 | 
O=C(O)/C=C/C(=O)O.c1cc2c3c(cccc3c1)C(NCCCCCn1ccnc1)=N2 [N-(5-(1H-imidazol-1-yl)pentyl)benz(cd)indol-2-amine, fumarate] | 95 | 111 | 
